Patent publication US11497212B2, “Substituted thiophenyl uracils, salts thereof and the use thereof as herbicidal agents” (Syngenta Crop Protection AG, priority 2017, dated 2022)

What was measured:
Assay type in all cases: in vivo
Amaranthus retroflexus [1] = test: Herbicidal action pre-emergence (greenhouse pot trial); conditions: scored after about 3 weeks
From the text: (§1) Seeds of mono- and dicotyledonous weeds and crop plants were laid out in plastic or organic plant pots and covered with soil. The compounds of the invention formulated in the form of wettable powders (WP) or emulsion concentrates (EC) were then applied to the surface of the covering soil as an aqueous suspension or emulsion with addition of 0.5% additive at a water application rate equivalent to 600 L/ha. After the treatment, the pots were placed in a greenhouse and kept under good growth conditions for the test plants. After about 3 weeks, the efficacy of the preparations was scored visually as a percentage by comparison with untreated controls. For example, 100% efficacy=plants have died, 0% efficacy=like control plants. Tables B1 to B16 below show the efficacies of selected compounds of the general formula (I) according to tables I.1 to I.60 on various harmful plants and an application rate corresponding to 320 g/ha or lower that were obtained by the aforementioned trial method.

Digitaria sanguinalis [2] = test: as above; conditions: application rate 80 g/ha
From the text: as §1

Matricaria inodora [3] = test: as above; conditions: scored after about 3 weeks
From the text: as §1

Echinochloa crus-galli [4] = test: as above; conditions: application rate 320 g/ha, scored after about 3 weeks
From the text: as §1

Veronica persica [5] = test: as above
From the text: as §1

Avena fatua = test: as above; conditions: application rate 320 g/ha
From the text: as §1

Stellaria media [6] = test: as above; conditions: scored after about 3 weeks
From the text: as §1

Setaria viridis [7] = test: as above; conditions: scored after about 3 weeks
From the text: as §1

Viola tricolor [8] = test: as above; conditions: scored after about 3 weeks
From the text: as §1

Alopecurus myosuroides [9] = test: as above; conditions: application rate 320 g/ha, scored after about 3 weeks
From the text: as §1

Pharbitis purpurea [10] = test: as above
From the text: as §1

Lolium rigidum [11] = test: as above; conditions: application rate 320 g/ha
From the text: as §1

Abutilon theophrasti [12] = test: as above; conditions: scored after about 3 weeks
From the text: as §1

Triticum aestivum = test: Crop compatibility post-emergence (greenhouse pot trial)
Outline: (§2)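 Crop seeds sown in sandy loam and grown in the greenhouse 2 to 3 weeks were treated at the one-leaf stage. WP or EC formulations were sprayed as aqueous suspension/emulsion with 0.5% additive at 600 L/ha. Damage was scored visually about 3 weeks later versus untreated controls (0% = like control, 100% = dead).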

Zea mays [13] = test: Crop compatibility pre-emergence (greenhouse pot trial); conditions: effect vs untreated controls
From the text: as §1, with “plants.” for “plants. Tables B1 to B16 below show the efficacies of selected compounds of the general formula (I) according to tables I.1 to I.60 on various harmful plants and an application rate corresponding to 320 g/ha or lower that were obtained by the aforementioned trial method.”
(§3) Crop compatibilities were also scored correspondingly.
(§4) The effects observed are reported here on selected crop plants by comparison with the untreated controls (values in %).

Amaranthus retroflexus [14] = test: Herbicidal action post-emergence (greenhouse pot trial); conditions: scored visually after about 3 weeks vs untreated controls
Outline: (§5)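 Visual efficacy score after ~3 wk in greenhouse vs untreated control; 100% = plants dead, 0% = like control. Spray: aqueous suspension/emulsion of WP or EC, 0.5% additive, 600 L/ha water, ≤80 g/ha. Plants in sandy loam pots, treated at one-leaf stage, 2–3 wk post-sowing.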

Digitaria sanguinalis [15] = test: as above
Outline: as §5

Matricaria inodora [16] = test: as above; conditions: scored visually after about 3 weeks vs untreated controls
Outline: as §5

Echinochloa crus-galli [17] = test: as above; conditions: scored visually after about 3 weeks vs untreated controls
Outline: as §5

Veronica persica [18] = test: as above
Outline: as §5

Polygonum convolvulus = test: as above; conditions: scored visually after about 3 weeks vs untreated controls
Outline: as §5

Stellaria media [19] = test: as above; conditions: scored visually after about 3 weeks vs untreated controls
Outline: as §5

Setaria viridis [20] = test: as above; conditions: scored visually after about 3 weeks vs untreated controls
Outline: as §5

Viola tricolor [21] = test: as above
Outline: as §5

Alopecurus myosuroides [22] = test: as above; conditions: application rate 80 g/ha, scored visually after about 3 weeks vs untreated controls
Outline: as §5

Pharbitis purpurea [23] = test: as above
Outline: as §5

Lolium rigidum [24] = test: as above; conditions: application rate 80 g/ha, scored visually after about 3 weeks vs untreated controls
Outline: as §5

Abutilon theophrasti [25] = test: as above; conditions: scored visually after about 3 weeks vs untreated controls
Outline: as §5

Oryza sativa = test: Crop compatibility post-emergence (greenhouse pot trial); conditions: application rate 20 g/ha
Outline: as §2

Glycine max = test: Crop compatibility pre-emergence (greenhouse pot trial); conditions: application rate 20 g/ha, effect vs untreated controls
From the text: as §1, with “plants.” for “plants. Tables B1 to B16 below show the efficacies of selected compounds of the general formula (I) according to tables I.1 to I.60 on various harmful plants and an application rate corresponding to 320 g/ha or lower that were obtained by the aforementioned trial method.”
as §3, §4

Hordeum murinum = test: Herbicidal action post-emergence (greenhouse pot trial); conditions: application rate 80 g/ha, scored visually after about 3 weeks vs untreated controls
Outline: as §5

Zea mays [26] = test: Crop compatibility post-emergence (greenhouse pot trial); conditions: application rate 20 g/ha
Outline: as §2

`CCOCCOC(=O)C(C)Sc1cc(-n2c(=O)cc(C(F)(F)F)n(C)c2=O)c(F)cc1Cl` (centres unmarked) [I.1-2] was tested, and the “Amaranthus retroflexus (Efficacy in %)” value (Amaranthus retroflexus [1]; application rate 320 g/ha) was 100%, the “Digitaria sanguinalis (Efficacy in %)” value (Digitaria sanguinalis [2]) was 100% and the “Matricaria inodora (Efficacy in %)” value (Matricaria inodora [3]; application rate 320 g/ha) was 100%. The “Echinochloa crus-galli (Efficacy in %)” value (Echinochloa crus-galli [4]) was 100%, the “Veronica persica (Efficacy in %)” value (Veronica persica [5]; application rate 320 g/ha) was 100% and the “Avena fatua (Efficacy in %)” value (Avena fatua) was 90%. For the same compound, the “Stellaria media (Efficacy in %)” value (Stellaria media [6]; application rate 320 g/ha) was 100%, the “Setaria viridis (Efficacy in %)” value (Setaria viridis [7]; application rate 320 g/ha) was 100% and the “Viola tricolor (Efficacy in %)” value (Viola tricolor [8]; application rate 320 g/ha) was 100%. The “Alopecurus myosuroides (Efficacy in %)” value (Alopecurus myosuroides [9]) was 80%, the “Pharbitis purpurea (Efficacy in %)” value (Pharbitis purpurea [10]; application rate 320 g/ha) was 100% and the “Lolium rigidum (Efficacy in %)” value (Lolium rigidum [11]) was 90%. For the same compound, the “Abutilon theophrasti (Efficacy in %)” value (Abutilon theophrasti [12]; application rate 320 g/ha) was 100%, the “Triticum aestivum (Efficacy in %)” value (Triticum aestivum; application rate 5 g/ha) was 20% and the “Zea mays (Efficacy in %)” value (Zea mays [13]; application rate 20 g/ha) was 0%. For the same compound, the “Amaranthus retroflexus (Efficacy in %)” value (Amaranthus retroflexus [14]; application rate 80 g/ha) was 100%, the “Digitaria sanguinalis (Efficacy in %)” value (Digitaria sanguinalis [15]; application rate 80 g/ha) was 100% and the “Matricaria inodora (Efficacy in %)” value (Matricaria inodora [16]; application rate 80 g/ha) was 100%. The “Echinochloa crus-galli (Efficacy in %)” value (Echinochloa crus-galli [17]; application rate 80 g/ha) was 100%, the “Veronica persica (Efficacy in %)” value (Veronica persica [18]; application rate 80 g/ha) was 100% and the “Polygonum convolvulus (Efficacy in %)” value (Polygonum convolvulus; application rate 80 g/ha) was 100%. For the same compound, the “Stellaria media (Efficacy in %)” value (Stellaria media [19]; application rate 80 g/ha) was 100%, the “Setaria viridis (Efficacy in %)” value (Setaria viridis [20]; application rate 80 g/ha) was 100% and the “Viola tricolor (Efficacy in %)” value (Viola tricolor [21]; application rate 80 g/ha) was 100%. For the same compound, the “Alopecurus myosuroides (Efficacy in %)” value (Alopecurus myosuroides [22]) was 90%, the “Pharbitis purpurea (Efficacy in %)” value (Pharbitis purpurea [23]; application rate 80 g/ha) was 100% and the “Lolium rigidum (Efficacy in %)” value (Lolium rigidum [24]) was 100%. For the same compound, the “Abutilon theophrasti (Efficacy in %)” value (Abutilon theophrasti [25]; application rate 80 g/ha) was 100%.

`Cn1c(C(F)(F)F)cc(=O)n(-c2cc(SCC(C)(C)C(=O)OCC3CCCO3)c(Cl)cc2F)c1=O` (centres unmarked) [I.48-71] was tested, and the “Amaranthus retroflexus (Efficacy in %)” value (Amaranthus retroflexus [1]; application rate 320 g/ha) was 100%, the “Digitaria sanguinalis (Efficacy in %)” value (Digitaria sanguinalis [2]) was 100% and the “Matricaria inodora (Efficacy in %)” value (Matricaria inodora [3]; application rate 320 g/ha) was 100%. For the same compound, the “Echinochloa crus-galli (Efficacy in %)” value (Echinochloa crus-galli [4]) was 100%, the “Veronica persica (Efficacy in %)” value (Veronica persica [5]; application rate 320 g/ha) was 100% and the “Avena fatua (Efficacy in %)” value (Avena fatua) was 80%. The “Stellaria media (Efficacy in %)” value (Stellaria media [6]; application rate 320 g/ha) was 100%, the “Setaria viridis (Efficacy in %)” value (Setaria viridis [7]; application rate 320 g/ha) was 100% and the “Viola tricolor (Efficacy in %)” value (Viola tricolor [8]; application rate 320 g/ha) was 100%. For the same compound, the “Alopecurus myosuroides (Efficacy in %)” value (Alopecurus myosuroides [9]) was 100%, the “Pharbitis purpurea (Efficacy in %)” value (Pharbitis purpurea [10]; application rate 320 g/ha) was 100% and the “Lolium rigidum (Efficacy in %)” value (Lolium rigidum [11]) was 90%. The “Abutilon theophrasti (Efficacy in %)” value (Abutilon theophrasti [12]; application rate 320 g/ha) was 100%, the “Oryza sativa (Efficacy in %)” value (Oryza sativa) was 20% and the “Triticum aestivum (Efficacy in %)” value (Triticum aestivum; application rate 20 g/ha) was 20%. For the same compound, the “Zea mays (Efficacy in %)” value (Zea mays [13]; application rate 320 g/ha) was 20%, the “Glycine max (Efficacy in %)” value (Glycine max) was 0% and the “Amaranthus retroflexus (Efficacy in %)” value (Amaranthus retroflexus [14]; application rate 80 g/ha) was 100%. For the same compound, the “Digitaria sanguinalis (Efficacy in %)” value (Digitaria sanguinalis [15]; application rate 80 g/ha) was 100%, the “Matricaria inodora (Efficacy in %)” value (Matricaria inodora [16]; application rate 80 g/ha) was 100% and the “Echinochloa crus-galli (Efficacy in %)” value (Echinochloa crus-galli [17]; application rate 80 g/ha) was 100%. The “Veronica persica (Efficacy in %)” value (Veronica persica [18]; application rate 80 g/ha) was 100%, the “Polygonum convolvulus (Efficacy in %)” value (Polygonum convolvulus; application rate 80 g/ha) was 100% and the “Stellaria media (Efficacy in %)” value (Stellaria media [19]; application rate 80 g/ha) was 100%. For the same compound, the “Setaria viridis (Efficacy in %)” value (Setaria viridis [20]; application rate 80 g/ha) was 100%, the “Viola tricolor (Efficacy in %)” value (Viola tricolor [21]; application rate 80 g/ha) was 100% and the “Alopecurus myosuroides (Efficacy in %)” value (Alopecurus myosuroides [22]) was 90%. For the same compound, the “Hordeum murinum (Efficacy in %)” value (Hordeum murinum) was 80%, the “Pharbitis purpurea (Efficacy in %)” value (Pharbitis purpurea [23]; application rate 80 g/ha) was 100% and the “Lolium rigidum (Efficacy in %)” value (Lolium rigidum [24]) was 80%. The “Abutilon theophrasti (Efficacy in %)” value (Abutilon theophrasti [25]; application rate 80 g/ha) was 100%.

For `CC(Sc1cc(-n2c(=O)cc(C(F)(F)F)n(C)c2=O)c(F)cc1Cl)C(=O)OCC1CCSC1` (centres unmarked) [I.1-82], the “Amaranthus retroflexus (Efficacy in %)” value (Amaranthus retroflexus [1]; application rate 80 g/ha) was 100%, the “Digitaria sanguinalis (Efficacy in %)” value (Digitaria sanguinalis [2]) was 80% and the “Matricaria inodora (Efficacy in %)” value (Matricaria inodora [3]; application rate 80 g/ha) was 100%. The “Veronica persica (Efficacy in %)” value (Veronica persica [5]; application rate 80 g/ha) was 100%, the “Stellaria media (Efficacy in %)” value (Stellaria media [6]; application rate 80 g/ha) was 100% and the “Setaria viridis (Efficacy in %)” value (Setaria viridis [7]; application rate 80 g/ha) was 100%. The “Viola tricolor (Efficacy in %)” value (Viola tricolor [8]; application rate 80 g/ha) was 100%, the “Pharbitis purpurea (Efficacy in %)” value (Pharbitis purpurea [10]; application rate 80 g/ha) was 100% and the “Abutilon theophrasti (Efficacy in %)” value (Abutilon theophrasti [12]; application rate 80 g/ha) was 100%. For the same compound, the “Zea mays (Efficacy in %)” value (Zea mays [26]) was 20%, the “Oryza sativa (Efficacy in %)” value (Oryza sativa) was 10% and the “Triticum aestivum (Efficacy in %)” value (Triticum aestivum; application rate 5 g/ha) was 0%. The “Zea mays (Efficacy in %)” value (Zea mays [13]; application rate 80 g/ha) was 0%, the “Amaranthus retroflexus (Efficacy in %)” value (Amaranthus retroflexus [14]; application rate 20 g/ha) was 100% and the “Digitaria sanguinalis (Efficacy in %)” value (Digitaria sanguinalis [15]; application rate 20 g/ha) was 100%. For the same compound, the “Matricaria inodora (Efficacy in %)” value (Matricaria inodora [16]; application rate 20 g/ha) was 100%, the “Echinochloa crus-galli (Efficacy in %)” value (Echinochloa crus-galli [17]; application rate 20 g/ha) was 100% and the “Veronica persica (Efficacy in %)” value (Veronica persica [18]; application rate 20 g/ha) was 100%. For the same compound, the “Polygonum convolvulus (Efficacy in %)” value (Polygonum convolvulus; application rate 20 g/ha) was 100%, the “Stellaria media (Efficacy in %)” value (Stellaria media [19]; application rate 20 g/ha) was 80% and the “Setaria viridis (Efficacy in %)” value (Setaria viridis [20]; application rate 20 g/ha) was 80%. For the same compound, the “Viola tricolor (Efficacy in %)” value (Viola tricolor [21]; application rate 20 g/ha) was 100%, the “Pharbitis purpurea (Efficacy in %)” value (Pharbitis purpurea [23]; application rate 20 g/ha) was 100% and the “Abutilon theophrasti (Efficacy in %)” value (Abutilon theophrasti [25]; application rate 20 g/ha) was 100%.
